Consider 19 compounds from patent US20260159512A1, “BCAT2 INHIBITORS” (AGIOS PHARMACEUTICALS, INC., priority 2021, published 2026).

Settings in all cases: average where tested multiple times
Experiment [1] concerns the target T1, BCAT2 (Homo sapiens, UniProt O15382).
T1 sequence (O15382 28-392): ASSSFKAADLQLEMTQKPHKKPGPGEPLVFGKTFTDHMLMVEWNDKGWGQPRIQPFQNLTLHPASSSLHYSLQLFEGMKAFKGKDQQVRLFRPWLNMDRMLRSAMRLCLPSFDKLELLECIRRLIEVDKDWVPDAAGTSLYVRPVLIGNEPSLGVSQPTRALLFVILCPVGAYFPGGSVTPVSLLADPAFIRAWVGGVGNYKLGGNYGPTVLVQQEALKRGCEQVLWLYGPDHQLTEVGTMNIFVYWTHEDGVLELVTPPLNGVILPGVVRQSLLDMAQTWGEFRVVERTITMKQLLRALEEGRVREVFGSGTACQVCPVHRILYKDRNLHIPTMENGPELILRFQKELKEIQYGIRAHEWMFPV
The experiment in a line: BCAT2 in vitro enzyme inhibition assay (resazurin/diaphorase-coupled fluorescence). The format is biochemical. Put shortly: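 Coupled fluorescence readout: glutamate formed from L-leucine/α-ketoglutarate transamination drives GDH/NAD/diaphorase reduction of resazurin (Ex 540/Em 590). Human BCAT2 was first exposed 1 h at room temperature to compound, top final 100 μM in 3-fold, 10-point series; substrate reaction ran 1 h before SDS quench, in technical duplicate with DMSO max and enzyme-free min controls.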

A further experiment addresses T2, hBCAT1 (Homo sapiens, UniProt P54687).
T2 sequence (P54687 1-386): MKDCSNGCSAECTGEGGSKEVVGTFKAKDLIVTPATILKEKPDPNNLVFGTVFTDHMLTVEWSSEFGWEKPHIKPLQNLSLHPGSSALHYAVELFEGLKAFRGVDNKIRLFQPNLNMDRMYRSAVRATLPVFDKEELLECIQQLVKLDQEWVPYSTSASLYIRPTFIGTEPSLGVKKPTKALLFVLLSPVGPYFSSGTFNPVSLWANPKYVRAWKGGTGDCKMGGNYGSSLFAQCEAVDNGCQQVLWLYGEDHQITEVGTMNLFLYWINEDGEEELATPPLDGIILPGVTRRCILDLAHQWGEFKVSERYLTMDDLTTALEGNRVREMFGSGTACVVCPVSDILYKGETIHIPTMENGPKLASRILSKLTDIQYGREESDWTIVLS
The experiment in a line: BCAT1 in vitro enzyme inhibition assay (resazurin/diaphorase-coupled fluorescence). The format is biochemical. The method, boiled down: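 Ten-point, 3-fold compound series (top final 100 μM, delivered 1:50 from 50× DMSO stocks) tested against hBCAT1. Inhibition detected via diaphorase-coupled resazurin fluorescence, duplicate wells, with values from repeated runs averaged.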

Experiment [2] addresses T1, BCAT2. Put plainly: BCAT2 in vitro cell inhibition using engineered A549 cells (KMV cell assay, 13C6-KMV by LC-MS/MS). The format is cell-based. Also on record: The result was an engineered A549 cell line that expressed endogenous BCAT2; endogenous in cells; host or cells: A549 cells with MUT and BCAT1 knocked out by CRISPR/CAS9; key to BCAT2 Cell Inhibition: A: less than or equal to 0.100 μM; B: greater than 0.100 and less than or equal to 0.500 μM; C: greater than 0.500 and less than or equal to 1.000 μM; d: greater than 1.000 μM; E: no fit.

SMILES strings stand for the structures. Where only a bound is given, the exact number is not on record here.

With `O=C(N[C@H]1CCC[C@@H](n2c(-c3ccccc3F)nc3cnc(-c4cnn[nH]4)cc32)C1)c1ncc(Cl)s1` [Example 189, 5-chloro-N-((1S,3R)-3-(2-(2-fluorophenyl)-6-(1H-1,2,3-triazol-5-yl)-1H-imidazo[4,5-c]pyridin-1-yl)cyclohexyl)thiazole-2-carboxamide], the IC50 (in general, the concentration at which inhibition is half-maximal) against BCAT2 [1] was at most 100 nM; on hBCAT1 it was below 500 nM; on BCAT2 [2] it was at most 100 nM.
For `CC(C)Cc1nc2cnc(-c3ncns3)cc2n1[C@@H]1CCC[C@H](NC(=O)c2ncc(Cl)s2)C1` [Example 328, 5-chloro-N-((1S,3R)-3-(2-isobutyl-6-(1,2,4-thiadiazol-5-yl)-1H-imidazo[4,5-c]pyridin-1-yl)cyclohexyl)thiazole-2-carboxamide], the IC50 at BCAT2 [1] is 100 to 500 nM; against hBCAT1, above 5000 nM; against BCAT2 [2], above 1000 nM.
Turning to `CC(C)Cc1nc2cnc(-c3nc[nH]n3)cc2n1[C@@H]1C[C@H](NC(=O)c2ncc(Cl)s2)CN(C)C1` (single isomer, unassigned) [Example 135], the IC50 against BCAT2 [1] was above 1000 nM; against hBCAT1, above 5000 nM. The “BCAT2 Cell Inhibition” value on BCAT2 [2] is given as “E”.
Consider `CC(C)Cc1nc2cnc(-c3ncn(C)n3)cc2n1[C@@H]1CCC[C@H](NC(=O)c2ncc(Cl)s2)C1` [Example 358, 5-chloro-N-((1S,3R)-3-(2-isobutyl-6-(1-methyl-1H-1,2,4-triazol-3-yl)-1H-imidazo[4,5-c]pyridin-1-yl)cyclohexyl)thiazole-2-carboxamide], for which the values for the IC50 at BCAT2 [1], against hBCAT1 and on BCAT2 [2] were at most 100 nM, 500 to 1000 nM and 100 to 500 nM, respectively.
Taken in the same sequence, the figures for `O=C(N[C@H]1CCC[C@@H](n2c(-c3ccccc3F)nc3cnc(-c4ccn[nH]4)cc32)[C@@H]1O)c1ncc(Cl)s1` [Example 240, 5-chloro-N-((1S,2R,3R)-3-(2-(2-fluorophenyl)-6-(1H-pyrazol-5-yl)-1H-imidazo[4,5-c]pyridin-1-yl)-2-hydroxycyclohexyl)thiazole-2-carboxamide] were at most 100 nM, below 500 nM and at most 100 nM.
As to `CC(C)[C@H](O)c1nc2cnc(-c3ncccn3)cc2n1[C@@H]1CCC[C@H](NC(=O)c2ncc(Cl)s2)C1` [Example 171, 5-chloro-N-((1S,3R)-3-(2-((S)-1-hydroxy-2-methylpropyl)-6-(pyrimidin-2-yl)-1H-imidazo[4,5-c]pyridin-1-yl)cyclohexyl)thiazole-2-carboxamide], the values for the IC50 on BCAT2 [1], against hBCAT1 and at BCAT2 [2] were at most 100 nM, below 500 nM and above 1000 nM, respectively.
As for `O=C(N[C@H]1CCC[C@@H](n2c(-c3ccccc3F)nc3cnc(-n4ccnn4)cc32)C1)c1ccc(Br)s1` [Example 14, 5-bromo-N-((1S,3R)-3-(2-(2-fluorophenyl)-6-(1H-1,2,3-triazol-1-yl)-1H-imidazo[4,5-c]pyridin-1-yl)cyclohexyl)thiophene-2-carboxamide], the IC50 against BCAT2 [1] is at most 100 nM; against hBCAT1, below 500 nM; against BCAT2 [2], at most 100 nM.
Take `CC(C)Cc1nc2cnc(-c3ccccn3)cc2n1[C@@H]1CCC[C@H](NC(=O)c2ncc(Cl)s2)C1` [Example 303, 5-chloro-N-((1S,3R)-3-(2-isobutyl-6-(pyridin-2-yl)-1H-imidazo[4,5-c]pyridin-1-yl)cyclohexyl)thiazole-2-carboxamide]: the IC50 was at most 100 nM on BCAT2 [1], below 500 nM at hBCAT1 and 100 to 500 nM against BCAT2 [2].
Take `O=C(N[C@H]1CCC[C@@H](n2c(Oc3ccccc3)nc3cnc(-n4nccn4)cc32)C1)c1ccc(Br)s1` [Example 63, 5-bromo-N-((1S,3R)-3-(2-phenoxy-6-(2H-1,2,3-triazol-2-yl)-1H-imidazo[4,5-c]pyridin-1-yl)cyclohexyl)thiophene-2-carboxamide]: the IC50 against BCAT2 [1] is at most 100 nM; against hBCAT1 it was above 5000 nM; against BCAT2 [2] it was 100 to 500 nM.
For `O=C(N[C@H]1CCC[C@@H](n2c(-c3ccccc3F)nc3cnc(-c4cn[nH]c4)cc32)C1)c1ncc(Cl)s1` [Example 81, 5-chloro-N-((1S,3R)-3-(2-(2-fluorophenyl)-6-(1H-pyrazol-4-yl)-1H-imidazo[4,5-c]pyridin-1-yl)cyclohexyl)thiazole-2-carboxamide], in that order: at most 100 nM, below 500 nM and 100 to 500 nM.
As for `CC(C)Cc1nc2cnc(-c3nccs3)cc2n1C1CCCC(NC(=O)c2ncc(Cl)s2)C1O` (stereo not drawn) [Example 386, 5-chloro-N-(2-hydroxy-3-(2-isobutyl-6-(thiazol-2-yl)-1H-imidazo[4,5-c]pyridin-1-yl)cyclohexyl)thiazole-2-carboxamide], the IC50 on BCAT2 [1] was at most 100 nM; against hBCAT1, below 500 nM; on BCAT2 [2], at most 100 nM.
For the compound `O=C(N[C@H]1C[C@H](O)C[C@@H](n2c(-c3ccccc3F)nc3cnc(-c4ccccn4)cc32)C1)c1ncc(Cl)s1` (single isomer, unassigned) [Example 252], the IC50 against BCAT2 [1] was at most 100 nM; against hBCAT1 it was below 500 nM; at BCAT2 [2], at most 100 nM.
As for `CC(C)Cc1nc2cnc(-n3cc(F)cn3)cc2n1[C@@H]1C[C@@H](O)C[C@H](NC(=O)c2ncc(Cl)s2)C1` [Example 221, 5-chloro-N-((1R,3S,5S)-3-(6-(4-fluoro-1H-pyrazol-1-yl)-2-isobutyl-1H-imidazo[4,5-c]pyridin-1-yl)-5-hydroxycyclohexyl)thiazole-2-carboxamide], the IC50 was at most 100 nM against BCAT2 [1], below 500 nM against hBCAT1 and 100 to 500 nM on BCAT2 [2].
Taken in the same sequence, the figures for `CC(C)[C@@H](O)c1nc2cnc(-c3ccccn3)cc2n1[C@@H]1CCC[C@H](NC(=O)c2ncc(Cl)s2)C1` [Example 305, 5-chloro-N-((1S,3R)-3-(2-((R)-1-hydroxy-2-methylpropyl)-6-(pyridin-2-yl)-1H-imidazo[4,5-c]pyridin-1-yl)cyclohexyl)thiazole-2-carboxamide] were at most 100 nM, below 500 nM and 100 to 500 nM.
Taken in the same sequence, the figures for `O=C(NC1CCCCC(n2c(-c3ccccc3F)nc3cnc(-c4nc[nH]n4)cc32)C1O)c1ncc(Cl)s1` (stereo not drawn) [Example 402, 5-chloro-N-((2-(2-fluorophenyl)-6-(1H-1,2,4-triazol-3-yl)-1H-imidazo[4,5-c]pyridin-1-yl)-2-hydroxycycloheptyl)thiazole-2-carboxamide] were at most 100 nM, below 500 nM and at most 100 nM.
As to `O=C(N[C@H]1CCC[C@@H](n2c(C3CCCOC3)nc3cnc(-c4nc[nH]n4)cc32)C1)c1ncc(Cl)s1` (single isomer, unassigned) [Example 102], the IC50 against BCAT2 [1] is at most 100 nM; at hBCAT1, 1000 to 5000 nM; against BCAT2 [2], above 1000 nM.
For `CC(C)Cc1nc2cnc(-c3cccc(C#N)n3)cc2n1[C@@H]1CCC[C@H](NC(=O)c2ncc(Cl)s2)[C@H]1O` [Example 392, 5-chloro-N-((1S,2R,3R)-3-(6-(6-cyanopyridin-2-yl)-2-isobutyl-1H-imidazo[4,5-c]pyridin-1-yl)-2-hydroxycyclohexyl)thiazole-2-carboxamide], in that order: 100 to 500 nM, 1000 to 5000 nM and above 1000 nM.
Taken in the same sequence, the figures for `N#Cc1cnc(C(=O)N[C@H]2CCC[C@@H](n3c(-c4ncccc4F)nc4cnc(-n5nccn5)cc43)C2)s1` [Example 66, 5-cyano-N-((1S,3R)-3-(2-(3-fluoropyridin-2-yl)-6-(2H-1,2,3-triazol-2-yl)-1H-imidazo[4,5-c]pyridin-1-yl)cyclohexyl)thiazole-2-carboxamide] were at most 100 nM, below 500 nM and at most 100 nM.
For `NC1CC(NC(=O)c2ncc(Cl)s2)CC(n2c(-c3ccccc3F)nc3cnc(-c4nc[nH]n4)cc32)C1` (single isomer, unassigned) [Example 455, N-(3-amino-5-(2-(2-fluorophenyl)-6-(1H-1,2,4-triazol-3-yl)-1H-imidazo[4,5-c]pyridin-1-yl)cyclohexyl)-5-chlorothiazole-2-carboxamide], in that order: at most 100 nM, below 500 nM and 100 to 500 nM.
